Assay: in vivo
Settings: Sprague-Dawley, rat, po, 4 mg/kg

For CC(C)(C#N)[C@H]1OC2(CCN(C(=O)[C@@H]3CN(C4CCOCC4)C[C@H]3c3ccc(F)cc3F)CC2)c2cc(F)c(Cl)cc21, which bioavailability is on record?
The bioavailability was 23%.

Which bioavailability does the source give for CC(=O)NC(C)(C)[C@H]1OC2(CCN(C(=O)[C@@H]3CN(C4CCOCC4)C[C@H]3c3ccc(F)cc3F)CC2)c2cc(Cl)c(C)cc21 here?
Its bioavailability is 26%.

— ChEMBL document CHEMBL1208763, “Discovery of potent, selective, and orally bioavailable 3H-spiro[isobenzofuran-1,4'-piperidine] based melanocortin subtype-4 receptor agonists” (Bioorg Med Chem Lett, 2010)
